# Laboratory results as given in patent publication US9453242B2, “Method and culture medium for preparing mammalian ovum or embryo in which zona pellucida has been thinned or eliminated, and method for fertilization using mammalian ovum prepared by same method” (NATIONAL UNIVERISTY CORPORATION KUMAMOTO UNIVERSITY, priority 2010, dated 2016).
# How the values were obtained:
# [1] = tested on: zona pellucida of a mouse unfertilized ovum; experiment: Swelling of zona pellucida (area in zona pellucida) of unfertilized ovum; format: cell-based; settings: reducing agents other than glutathione; FIG. 10, FIG. 11 (DTT 0.5, ascorbic acid 5, epicatechin 1 mM)
# Protocol: Further, the influence of glutathione on swelling of zona pellucida was confirmed. […] Preparation of ovum” were treated with HTF culture media containing glutathione at various concentration at 37° C. for 6 hours, then, the area in zona pellucida was photographed under a microscope and measured by an image analysis software. The conditions of zona pellucida at glutathione concentrations of 0 mM, 1 mM, 2 mM and 10 mM were observed by an invert microscope.
# The influence of other reducing agents (DTT, ascorbic acid (VC) and epicatechin (EC)) exerted on thinning and swelling of zona pellucida was confirmed in the same manner as in Example 2. The extent of swelling of the zona pellucida of an unfertilized ovum by the concentration of each reducing agent was photographed under a microscope, and determined according to the following formula. % Relative area in ZP=(area of zona pellucida in each experiment/area of zona pellucida at 0 mM)×100
# [2] = tested on: frozen sperms of C57BL/6J mice; experiment: In vitro fertilization after sperm pre-incubation with MBCD and/or glutathione; format: cell-based, mouse
# Protocol: A sperm suspension is pre-incubated in 90 μl of a TYH culture medium at 37° C. for 30 minutes, and under a stereomicroscope, sperms showing motility are collected, avoiding nonmotile sperms, and used for fertilization. The pre-incubated sperm suspension (10 μl) is added to 90 μl of an HTF culture medium (±glutathione) into which cumulus-oocyte complexes (COCs) have been previously introduced (insemination), and these are co-incubated in an incubator for 5 to 6 hours (37° C., 5% CO2), thereby performing fertilization. Thereafter, the ovum is washed with drops of new HTF, and the ovum is observed. Those judged to parthenogenetic (only one pronucleus is recognized in ooplasm) are excluded, and on the following day (24 hours after insemination), only 2-cell stage embryos are selected, and fertilization rate is determined according to the following formula. In vitro fertilization rate (%)=(number of 2-cell stage embryo)/(number of 2-cell stage embryo+number of unfertilized ovum)×100
# The TYH culture medium used for pre-incubation of sperms was prepared according to the above-described composition excepting that polyvinyl alcohol (1.0 mg/ml, available from SIGMA) was used instead of bovine serum albumin, and methyl-β-cyclodextrin (0.75 mM, available from SIGMA) was added. Further, the concentration of glutathione in the TYH culture medium was 1 mM, preparation was carried out in the same manner as in Example 1, and glutathione was added to the TYH culture medium directly before use. The influence on fertilization rate was compared among those containing methyl-β-cyclodextrin, those containing glutathione and those containing both compounds.
# Fertilization was conducted with 90 μl of an HTF culture medium (in the case of addition of glutathione, the concentration was 1 mM) containing cumulus-oocyte complexes (COCs), in the same manner as in Example 1 (IVF/glutathione in table). As the sperm, frozen sperms of C57BL/6J mice were used, and processed according to FIG. 1. Thawed sperms were pre-incubated in a TYH culture medium (±glutathione, ±methyl-β-cyclodextrin) at 37° C. for 30 minutes, and sperms showing motility were collected and used for fertilization. The experiment was conducted five times.
Compound,thinning and swelling of zona pellucida [1],"number of 2-cell stage embryo(%) ([2]; sperm pre-incubation MBCD + (0.75 mM), glutathione −, IVF glutathione −)","number of 2-cell stage embryo ([2]; sperm pre-incubation MBCD + (0.75 mM), glutathione −, IVF glutathione −, 323 oocytes)","effect of sperm pre-incubation on fertilization rate ([2]; sperms pre-incubated with 1 mM glutathione or 0.75 mM MBCD, 37° C., 30 minutes)"
O[C@@H](CS)[C@@H](O)CS [DTT],thinning and swelling of zona pellucida by treatment with DTT were confirmed,,,
O=C1O[C@H]([C@@H](O)CO)C(O)=C1O [ascorbic acid],thinning or swelling of zona pellucida did not occur,,,
methyl-β-cyclodextrin [MBCD],,65,210,fertilization rate was improved
